Results published in US9510598B2, “Nitrogen-containing heterocyclic compounds for plant disease control” (BAYER CROPSCIENCE AG, priority 2012, dated 2016).

Type: physicochemical
Details: HPLC on reversed phase columns, method [a]: pH 2.7, 0.1% formic acid in water and acetonitrile, linear gradient 10% to 95% acetonitrile

Structure (SMILES) | log P
C#Cc1cnc2ccc(C3=NOC(C)(C(=O)N(Cc4cc(F)cc5c4C(C)(C)CCC5)C4CC4)C3)cc2c1 (racemic) [compound 816] | 5.54[a]
CC1(C(=O)NCc2cccnc2O)CC(c2ccc3ncc(Br)cc3c2)=NO1 (racemic) [compound 817] | 1.88[a]
C#Cc1cnc2ccc(C3=NOC(OC)(C(=O)NCCC4CCCO4)C3)cc2c1 (racemic) [compound 818] | 2.11[a]
CC(C)(C)Oc1ncccc1CNC(=O)C1(C)CC(c2ccc3ncc(Br)cc3c2)=NO1 (racemic) [compound 819] | 4.46[a]
C#Cc1cnc2ccc(C3=NOC(OC)(C(=O)NCc4cn(CC)nc4C(F)(F)F)C3)cc2c1 (racemic) [compound 820] | 2.80[a]
CCn1cc(CNC(=O)C2(C)CC(c3ccc4ncc(Br)cc4c3)=NO2)c(C(F)(F)F)n1 (racemic) [compound 821] | 3.13[a]
COC1(C(=O)NCCC2CC2)CC(c2ccc3ncc(Br)cc3c2)=NO1 (racemic) [compound 822] | 3.03[a]
COC1(C(=O)NCCC2CCOC2)CC(c2ccc3ncc(Br)cc3c2)=NO1 (racemic) [compound 823] | 2.27[a]

Same assay, conditions: method [a]: HPLC/LC-MS on reversed phase at pH 2.7, 0.1% formic acid in water / acetonitrile, gradient 10% to 95% acetonitrile

Structure (SMILES) | log P
C#Cc1cnc2ccc(C3=NOC(C)(C(=O)NCCCN(C)C)C3)cc2c1 (racemic) [compound 363] | 1.11[a]
C#Cc1cnc2ccc(C3=NOC(C)(C(=O)NC(C)CCCCCC)C3)cc2c1 (racemic) [compound 367] | 4.19[a]
C#Cc1cnc2ccc(C3=NOC(C)(C(=O)NC(C)CCC(C)C)C3)cc2c1 (racemic) [compound 369] | 3.73[a]
CCCCCCC(C)NC(=O)C1(C)CC(c2ccc3ncc(Br)cc3c2)=NO1 (racemic) [compound 370] | 4.73[a]
CC1CCCC(C)C1NC(=O)C1(C)CC(c2ccc3ncc(Br)cc3c2)=NO1 (racemic) [compound 372] | 4.29[a]
CC(C)(C)ONC(=O)C1(C)CC(c2ccc3ncc(Br)cc3c2)=NO1 (racemic) [compound 373] | 2.66[a]
CC(ONC(=O)C1(C)CC(c2ccc3ncc(Br)cc3c2)=NO1)C1CC1 (racemic) [compound 375] | 2.73[a]
CCn1cc(CNC(=O)C2(C)CC(c3ccc4ncc(-c5ccco5)cc4c3)=NO2)c(C)n1 (racemic) [compound 379] | 2.37[a]
CCn1cc(CNC(=O)C2(C)ON=C(c3ccc4ncc(Br)cc4c3)C2C)c(C)n1 (racemic) [compound 385] | 2.55[a]

Next, values leading:

log P | Structure (SMILES)
2.44[a] | CCn1cc(CNC(=O)C2(C)ON=C(c3ccc4ncc(Br)cc4c3)C2OC)c(C)n1 (mixture of isomers) [compound 433]
2.31[a] | CCn1cc(CNC(=O)C2(CC(=O)OC)CC(c3ccc4ncc(Br)cc4c3)=NO2)c(C)n1 (racemic) [compound 386]
2.66[a] | COC(=O)CC1(C(=O)NC(C)C)CC(c2ccc3ncc(Br)cc3c2)=NO1 (racemic) [compound 387]
3.35[a] | CCOC1C(c2ccc3ncc(Br)cc3c2)=NOC1(C)C(=O)NC(C)C (racemic) [compound 393]
2.50[a] | O=C(NC1CC1)C12CC1C(c1ccc3ncc(Br)cc3c1)=NO2 (racemic) [compound 398]
2.44[a] | CCn1cc(CNC(=O)C23CC2C(c2ccc4ncc(Br)cc4c2)=NO3)c(C)n1 (racemic) [compound 399]
2.75[a] | CC1(C)OCC(CNC(=O)C23CC2C(c2ccc4ncc(Br)cc4c2)=NO3)O1 (racemic) [compound 400]
2.84[a] | CCOCCCNC(=O)C12CC1C(c1ccc3ncc(Br)cc3c1)=NO2 (racemic) [compound 401]
3.11[a] | CC(C)NC(=O)C12ON=C(c3ccc4ncc(Br)cc4c3)C1C2C (racemic) [compound 403]
3.01[a] | CCn1cc(CNC(=O)C2(CC3CC3)CC(c3ccc4ncc(Br)cc4c3)=NO2)c(C)n1 (racemic) [compound 425]
2.77[a] | CC(C)NC(=O)C1(C)CC(c2ccc3ncc(NC(=O)OC(C)(C)C)cc3c2)=NO1 (racemic) [compound 430]
2.57[a] | CCn1cc(CNC(=O)C2(C)CC(c3ccc4nc(C#N)c(I)cc4c3)=NO2)c(C)n1 (racemic) [compound 431]
2.94[a] | CCn1cc(CNC(=O)C2(C)CC(c3ccc4nc(Cl)c(I)cc4c3)=NO2)c(C)n1 (racemic) [compound 432]
1.12[a] | CCn1cc(CNC(=O)C2(C)CC(c3ccc4ncc(N)cc4c3)=NO2)c(C)n1 (racemic) [compound 452]

Same assay, conditions: method [a]: HPLC/LC-MS on reversed phase at pH 2.7, 0.1% formic acid in water and acetonitrile, linear gradient 10% to 95% acetonitrile

Structure (SMILES) | Log P
CNC(=O)C1(C)CC(c2ccc3ncccc3c2)=NO1 (stereo not shown) [compound 2] | 1.3^[a]
CC1(C(=O)NC2CC2)CC(c2ccc3ncccc3c2)=NO1 (stereo not shown) [compound 3] | 1.04^[a]
CON(OC)C(=O)C1(C)CC(c2cc3cc(Br)cnc3c(F)c2F)=NO1 (stereo not shown) [compound 9] | 2.92^[a]
CCn1cc(CNC(=O)C2(C)CC(c3cc4cc(Br)cnc4c(F)c3F)=NO2)cn1 (stereo not shown) [compound 13] | 2.5^[a]
CCC(C)NC(=O)C1(C(F)(F)F)CC(c2cc3cc(Br)cnc3c(F)c2F)=NO1 (stereo not shown) [compound 15] | 4.04^[a]
CCOCCCNC(=O)C1(C(F)(F)F)CC(c2cc3cc(Br)cnc3c(F)c2F)=NO1 (stereo not shown) [compound 16] | 3.71^[a]
COc1ccc(CNC(=O)C2(C)CC(c3cc4cc(Br)cnc4c(F)c3F)=NO2)cc1OC (stereo not shown) [compound 19] | 3.02^[a]

Same assay, conditions: pH 2.7

Structure (SMILES) | chromatographic logP
COC(=O)C1(C)CC(c2ccc3ncc(I)cc3c2)=NO1 (stereo not shown) [Compound No. 11-30] | 2.71
CC(C)NC(=O)C1(C)CC(c2ccc3ncc(-c4cccs4)cc3c2)=NO1 (stereo not shown) [Compound No. 144] | 3.04
CC(C)NC(=O)C1(C)CC(c2ccc3ncc(-c4cncnc4)cc3c2)=NO1 (stereo not shown) [Compound No. 258] | 1.79
CCOCCCNC(=O)C1(C(F)F)CC(c2ccc3ncc(Br)cc3c2)=NO1 (stereo not shown) [Compound No. 623, 3-(3-bromoquinolin-6-yl)-5-(difluoromethyl)-N-(3-ethoxypropyl)-4,5-dihydro-1,2-oxazole-5-carboxamide] | 3.06

Same assay, conditions: reversed phase HPLC column; HPLC reversed phase, pH 2.7, 0.1% formic acid in water / acetonitrile, linear gradient 10% to 95% acetonitrile; calibration with alkan-2-ones; read-out: log P (HCOOH)

Structure (SMILES) | chromatographic logP
O/N=C/c1ccc2ncc(Cl)cc2c1 [1-(3-chloroquinolin-6-yl)-N-hydroxymethanimine] | 1.78
O/N=C/c1ccc2ncc(I)cc2c1 [1-(3-iodoquinolin-6-yl)-N-hydroxymethanimine] | 1.98
O/N=C(\Cl)c1ccc2ncc(I)cc2c1 [3-Iodo-N-hydroxyquinoline-6-carboximidoyl chloride] | 2.63
O=Cc1cc2cc(Br)cnc2c(F)c1F [3-bromo-7,8-difluoroquinoline-6-carbaldehyde] | 2.71
O=Cc1ccc2ncc(Br)cc2c1 [3-bromoquinoline-6-carbaldehyde] | 2.08
O/N=C(\Cl)c1ccc2ncc(Cl)cc2c1 [3-chloro-N-hydroxyquinoline-6-carboximidoyl chloride] | 1.96
O=Cc1ccc2ncc(Cl)cc2c1 [3-chloroquinoline-6-carbaldehyde] | 1.96
O=Cc1ccc2ncc(I)cc2c1 [3-iodoquinoline-6-carbaldehyde] | 2.12
CC(C)NC(=O)C1(C)CC(c2ccc3ncc(-c4ccccc4)cc3c2)=NO1 (stereo not shown) [Compound No. 141] | 3.02
CCn1cc(CNC(=O)C23OCCCC2C(c2ccc4ncc(Br)cc4c2)=NO3)c(C)n1 (stereo not shown) [Compound No. 266] | 2.59
